Data as given in patent publication US9334279B2, “Hepatitis C virus inhibitors” (BRISTOL-MYERS SQUIBB COMPANY, priority 2012, dated 2016).
pEC50: −log10 of the molar value. Where two headings read alike, the source gives them in different places.

Key:
HCV GT1a(H77) replicon = assay: HCV replicon luciferase reporter assay, genotype 1a; assay type: cell-based, HCV genotype 1a; details: Hepatitis C virus, 72 h, HUH-7 cells, Renilla luciferase, 3 days incubation
Excerpt: A stable HCV GT1a(H77) replicon luciferase reporter cell line (Yanagi M, Purcell RH, Emerson S U, et al. Transcripts from a single full-length cDNA clone of hepatitis C virus are infectious when directly transfected into the liver of a chimpanzee. Proc Natl Acad Sci USA 1997; 94(16):8738-8743) was generated as described previously for the genotype 1b(Con1) replicon luciferase cell line. The replicon construct was modified by introducing mutations into the genes encoding the NS3 helicase domain (proline replaced by leucine at position 1496) and NS5A (serine to isoleucine at position 2204) to improve replication in cell culture.
(§1) HCV replicon luciferase assays were developed to monitor the inhibitory effects of compounds described in the disclosure on HCV genotypes 1a and 1b viral replication. HUH-7 cells, constitutively expressing the HCV replicon, were grown in Dulbecco's Modified Eagle Media (DMEM) (Gibco-BRL) containing 10% Fetal calf serum (FCS) (Sigma) and 1 mg/mL G418 (Gibco-BRL). Compounds were serially diluted 3 folds in DMSO for a twenty-point titration and subsequently transferred to sterile 384-well tissue-culture treated plates (Corning cat #3571). The plates were then seeded with 50 μL of cells at a density of 3.0×10^3 cells/well in DMEM containing 4% FCS (final DMSO concentration at 0.5%). After 3 days incubation at 37° C., cells were analyzed for Renilla Luciferase activity using the EnduRen as substrate (Promega cat #E6485). The EnduRen substrate was diluted in DMEM and then added to the plates to a final concentration of 7.5 μM. The plates were incubated for 2 hrs at 37° C. and then read immediately for 30 seconds with Viewlux Imager (PerkinElmer) using a luminescence program. To assess cytotoxicity of compounds, CC50 values were generated by multiplexing the EnduRen-containing plates with Cell Titer-Blue (Promega, cat #G8082). Cell-Titer Blue (3 μL) was added to each well and incubated for 8 hrs at 37° C. The fluorescence signal from each well was read, with an excitation wavelength at 525/10 nm and an emission wavelength of 598/10 nm, using the Viewlux Imager.
(§2) The EC50 values for compounds were calculated by using a four-parameter logistic equation: y=A+[…])/(1+((C/x)^D))), where A and B denotes minimal and maximal % inhibition, respectively, C is the EC50, D is the hill slope and x represents compound concentration.

HCV GT1b(Con1) replicon = assay: HCV replicon luciferase reporter assay, genotype 1b; assay type: cell-based, HCV genotype 1b; details: Hepatitis C virus, 72 h, HUH-7 cells, Renilla luciferase, 3 days incubation
Excerpt: An HCV GT1b(Con1) replicon cell system was established as described by Lohmann V, Korner F, Koch J, Herian U, Theilmann L, Bartenschlager R., Science 285(5424):110-3 (1999) and modified to introduce a luciferase reporter (Krieger N, Lohmann V, and Bartenschlager R, J. Virol. 75(10):4614-4624 (2001)). cDNA encoding a humanized form of the Renilla luciferase gene, and a linker sequence fused directly to the 3′-end of the luciferase gene were introduced into the replicon construct using an Asc1 restriction site located in core, directly upstream of the neomycin marker gene. The adaptive mutation at position 1179 (serine to isoleucine) was also introduced (Blight K J, Kolykhalov, A A, Rice, C M, Science 290(5498):1972-1974). A stable cell line constitutively expressing this HCV replicon construct was generated by first linearizing plasmid DNAs with ScaI. RNA transcripts were synthesized in vitro using the T7 MegaScript transcription kit (Ambion, Austin, Tex.) according to manufacturer's directions. In vitro transcripts of the cDNA were transfected into the human hepatoma cell line, HUH-7. […] Resulting cell lines were characterized for positive and negative strand RNA production and protein production over time.
as §1, §2

| Compound | pEC50 (HCV GT1a(H77) replicon; read-out: LE_1a (EC50, range)) | pEC50 (HCV GT1b(Con1) replicon; read-out: LE_1b (EC50, range)) | pEC50 (HCV GT1a(H77) replicon; read-out: LE_1a (EC50)) | pEC50 (HCV GT1b(Con1) replicon; read-out: LE_1b (EC50)) |
| --- | --- | --- | --- | --- |
| CC(C)Oc1ccc(-c2cc(O[C@@H]3C[C@H]4C(=O)N[C@]5(C(=O)NS(=O)(=O)C6(C)CC6)C[C@H]5/C=C\CC[C@H](C)C[C@@H](C)[C@H](NC(=O)OC(C)(C)C(F)(F)F)C(=O)N4C3)cc(-c3cncs3)n2)cc1 [Compound 1004, 1,1,1-trifluoro-2-methylpropan-2-yl ((2R,6S,7R,9S,13aS,14aR,16aS,Z)-2-((2-(4-isopropoxyphenyl)-6-(thiazol-5-yl)pyridin-4-yl)oxy)-7,9-dimethyl-14a-(((1-methylcyclopropyl)sulfonyl)carbamoyl)-5,16-dioxo-1,2,3,5,6,7,8,9,10,11,13a,14,14a,15,16,16a-hexadecahydrocyclopropa[e]pyrrolo[1,2-a][1,4]diazacyclopentadecin-6-yl)carbamate] | 7.46 to 8.30 | 8.30 to 9.00 | – | – |
| CC(C)Oc1ccc(-c2cc(O[C@@H]3C[C@H]4C(=O)N[C@]5(C(=O)NS(=O)(=O)C6(C)CC6)C[C@H]5/C=C\CC[C@@H](C)C[C@@H](C)[C@H](NC(=O)OC(C)(C)C(F)(F)F)C(=O)N4C3)cc(-c3cccnc3)n2)cc1 [Compound 1005, 1,1,1-trifluoro-2-methylpropan-2-yl ((2R,6S,7R,9R,13aS,14aR,16aS,Z)-2-((6-(4-isopropoxyphenyl)-[2,3′-bipyridin]-4-yl)oxy)-7,9-dimethyl-14a-(((1-methylcyclopropyl)sulfonyl)carbamoyl)-5,16-dioxo-1,2,3,5,6,7,8,9,10,11,13a,14,14a,15,16,16a-hexadecahydrocyclopropa[e]pyrrolo[1,2-a][1,4]diazacyclopentadecin-6-yl)carbamate] | 8.30 to 9.00 | 8.30 to 9.00 | 8.83 | 8.77 |
| CC(C)Oc1ccc(-c2cc(O[C@@H]3C[C@H]4C(=O)N[C@]5(C(=O)NS(=O)(=O)C6(C)CC6)C[C@H]5/C=C\CC[C@H](C)C[C@@H](C)[C@H](NC(=O)OC(C)(C)C(F)(F)F)C(=O)N4C3)cc(-c3cccnc3)n2)cc1 [Compound 1006, 1,1,1-trifluoro-2-methylpropan-2-yl ((2R,6S,7R,9S,13aS,14aR,16aS,Z)-2-((6-(4-isopropoxyphenyl)-[2,3′-bipyridin]-4-yl)oxy)-7,9-dimethyl-14a-(((1-methylcyclopropyl)sulfonyl)carbamoyl)-5,16-dioxo-1,2,3,5,6,7,8,9,10,11,13a,14,14a,15,16,16a-hexadecahydrocyclopropa[e]pyrrolo[1,2-a][1,4]diazacyclopentadecin-6-yl)carbamate] | 7.46 to 8.30 | 7.46 to 8.30 | – | – |
| CC(C)Oc1ccc(-c2cc(O[C@@H]3C[C@H]4C(=O)N[C@]5(C(=O)NS(=O)(=O)C6(C)CC6)C[C@H]5/C=C\CC[C@@H](C)C[C@@H](C)[C@H](NC(=O)OC(C)(C)C(F)(F)F)C(=O)N4C3)cc(-c3nccs3)n2)cc1 [Compound 1007, 1,1,1-trifluoro-2-methylpropan-2-yl ((2R,6S,7R,9R,13aS,14aR,16aS,Z)-2-((2-(4-isopropoxyphenyl)-6-(thiazol-2-yl)pyridin-4-yl)oxy)-7,9-dimethyl-14a-(((1-methylcyclopropyl)sulfonyl)carbamoyl)-5,16-dioxo-1,2,3,5,6,7,8,9,10,11,13a,14,14a,15,16,16a-hexadecahydrocyclopropa[e]pyrrolo[1,2-a][1,4]diazacyclopentadecin-6-yl)carbamate] | 8.30 to 9.00 | 8.30 to 9.00 | – | – |
| CC(C)Oc1ccc(-c2cc(O[C@@H]3C[C@H]4C(=O)N[C@]5(C(=O)NS(=O)(=O)C6(C)CC6)C[C@H]5/C=C\CC[C@H](C)C[C@@H](C)[C@H](NC(=O)OC(C)(C)C(F)(F)F)C(=O)N4C3)cc(-c3nccs3)n2)cc1 [Compound 1008, 1,1,1-trifluoro-2-methylpropan-2-yl ((2R,6S,7R,9S,13aS,14aR,16aS,Z)-2-((2-(4-isopropoxyphenyl)-6-(thiazol-2-yl)pyridin-4-yl)oxy)-7,9-dimethyl-14a-(((1-methylcyclopropyl)sulfonyl)carbamoyl)-5,16-dioxo-1,2,3,5,6,7,8,9,10,11,13a,14,14a,15,16,16a-hexadecahydrocyclopropa[e]pyrrolo[1,2-a][1,4]diazacyclopentadecin-6-yl)carbamate] | 7.46 to 8.30 | 8.30 to 9.00 | – | – |
| CC(C)Oc1ccc(-c2cc(O[C@@H]3C[C@H]4C(=O)N[C@]5(C(=O)NS(=O)(=O)C6(C)CC6)C[C@H]5/C=C\CC[C@@H](C)C[C@@H](C)[C@H](NC(=O)OC(C)(C)C(F)(F)F)C(=O)N4C3)cc(-c3ccncc3)n2)cc1 [Compound 1009, 1,1,1-trifluoro-2-methylpropan-2-yl ((2R,6S,7R,9R,13aS,14aR,16aS,Z)-2-((6-(4-isopropoxyphenyl)-[2,4′-bipyridin]-4-yl)oxy)-7,9-dimethyl-14a-(((1-methylcyclopropyl)sulfonyl)carbamoyl)-5,16-dioxo-1,2,3,5,6,7,8,9,10,11,13a,14,14a,15,16,16a-hexadecahydrocyclopropa[e]pyrrolo[1,2-a][1,4]diazacyclopentadecin-6-yl)carbamate] | 8.30 to 9.00 | 8.30 to 9.00 | – | – |
| CC(C)Oc1ccc(-c2cc(O[C@@H]3C[C@H]4C(=O)N[C@]5(C(=O)NS(=O)(=O)C6(C)CC6)C[C@H]5/C=C\CC[C@H](C)C[C@@H](C)[C@H](NC(=O)OC(C)(C)C(F)(F)F)C(=O)N4C3)cc(-c3ccncc3)n2)cc1 [Compound 1010, 1,1,1-trifluoro-2-methylpropan-2-yl ((2R,6S,7R,9S,13aS,14aR,16aS,Z)-2-((6-(4-isopropoxyphenyl)-[2,4′-bipyridin]-4-yl)oxy)-7,9-dimethyl-14a-(((1-methylcyclopropyl)sulfonyl)carbamoyl)-5,16-dioxo-1,2,3,5,6,7,8,9,10,11,13a,14,14a,15,16,16a-hexadecahydrocyclopropa[e]pyrrolo[1,2-a][1,4]diazacyclopentadecin-6-yl)carbamate] | 7.46 to 8.30 | 7.46 to 8.30 | – | – |
| COc1cccc(-c2cc(O[C@@H]3C[C@H]4C(=O)N[C@]5(C(=O)NS(=O)(=O)C6(C)CC6)C[C@H]5/C=C\CC[C@@H](C)C[C@@H](C)[C@H](NC(=O)OC(C)(C)C(F)(F)F)C(=O)N4C3)cc(-c3ccc(OC(C)C)cc3)n2)n1 [Compound 1011, 1,1,1-trifluoro-2-methylpropan-2-yl ((2R,6S,7R,9R,13aS,14aR,16aS,Z)-2-((6-(4-isopropoxyphenyl)-6′-methoxy-[2,2′-bipyridin]-4-yl)oxy)-7,9-dimethyl-14a-(((1-methylcyclopropyl)sulfonyl)carbamoyl)-5,16-dioxo-1,2,3,5,6,7,8,9,10,11,13a,14,14a,15,16,16a-hexadecahydrocyclopropa[e]pyrrolo[1,2-a][1,4]diazacyclopentadecin-6-yl)carbamate] | 8.30 to 9.00 | 8.30 to 9.00 | – | – |
| CC(C)Oc1ccc(-c2cc(O[C@@H]3C[C@H]4C(=O)N[C@]5(C(=O)NS(=O)(=O)C6(C)CC6)C[C@H]5/C=C\CC[C@@H](C)C[C@@H](C)[C@H](NC(=O)OC(C)(C)C(F)(F)F)C(=O)N4C3)cc(-n3cccn3)n2)cc1 [Compound 1013, 1,1,1-trifluoro-2-methylpropan-2-yl ((2R,6S,7R,9R,13aS,14aR,16aS,Z)-2-((2-(4-isopropoxyphenyl)-6-(1H-pyrazol-1-yl)pyridin-4-yl)oxy)-7,9-dimethyl-14a-(((1-methylcyclopropyl)sulfonyl)carbamoyl)-5,16-dioxo-1,2,3,5,6,7,8,9,10,11,13a,14,14a,15,16,16a-hexadecahydrocyclopropa[e]pyrrolo[1,2-a][1,4]diazacyclopentadecin-6-yl)carbamate] | 8.30 to 9.00 | 8.30 to 9.00 | – | – |
